In the test the target is T1, 5-HT4 receptor (Cavia porcellus, UniProt O70528).
T1 construct: Longitudinal muscle-myenteric plexus preparations, approximately 3 cm long, are obtained from the distal colon region; from tissue; host or cells: guinea-pig distal colon, longitudinal muscle-myenteric plexus
Put plainly: Guinea pig colon 5-HT4 receptor antagonist activity (reduction of 5-HT evoked contraction of longitudinal muscle-myenteric plexus). Particulars: distal colon longitudinal muscle-myenteric plexus; contraction evoked by 5-HT; methiothepin 10^-7 M and granisetron 10^-6 M present; n=4; read-out: pIC50 (-log concentration of antagonist which reduces the contraction by 50%) (converted). As to the method:
Male guinea-pigs, weighing 250-400 g are used. Longitudinal muscle-myenteric plexus preparations, approximately 3 cm long, are obtained from the distal colon region. These are suspended under a 0.5 g load in isolated tissue baths containing Krebs solution bubbled with 5% CO2 in O2 and maintained at 37° C. In all experiments, the Krebs solution also contains methiothepin 10^-7 M and granisetron 10^-6 M to block effects at 5-HT1, 5-HT2 and 5-HT3 receptors.
After construction of a simple concentration-response curve with 5-HT, using 30s contact times and a 15 min dosing cycle, a concentration of 5-HT is selected so as to obtain a contraction of the muscle approximately 40-70% maximum(10^-9 M approx). The tissue is then alternately dosed every 15 min with this concentration of 5-HT and then with an approximately equi-effective concentration of the nicotine receptor stimulant, dimethylphenylpiperazinium (DMPP). After obtaining consistent responses to both 5-HT and DMPP, increasing concentrations of a putative 5-HT4 receptor antagonist are then added to the bathing solution. The effects of this compound are then determined as a percentage reduction of the contractions evoked by 5-HT or by DMPP. […] A compound which reduces the response to 5-HT but not to DMPP is believed to act as a 5-HT4 receptor antagonist.

T1 sequence (O70528 whole entry): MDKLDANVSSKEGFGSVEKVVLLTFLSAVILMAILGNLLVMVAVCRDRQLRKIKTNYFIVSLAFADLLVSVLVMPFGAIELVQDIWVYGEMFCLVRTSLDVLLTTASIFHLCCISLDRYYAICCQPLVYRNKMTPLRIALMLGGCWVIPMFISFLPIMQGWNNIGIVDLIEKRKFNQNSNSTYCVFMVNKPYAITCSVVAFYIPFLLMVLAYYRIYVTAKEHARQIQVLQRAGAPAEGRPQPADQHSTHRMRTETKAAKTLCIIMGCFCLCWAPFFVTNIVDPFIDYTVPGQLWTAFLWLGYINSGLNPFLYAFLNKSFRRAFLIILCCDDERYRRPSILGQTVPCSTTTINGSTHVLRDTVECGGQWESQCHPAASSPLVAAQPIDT

On to `CCCCN1CCC(COC(=O)c2cc3[nH]cnc3c3c2OCCO3)CC1` [Example 1, (1-Butyl-4-piperidinyl)methyl 1 H-7,8-dihydro-[1,4]-dioxino[2,3-g]benzimidazole-5-carboxylate], for which the IC50 was 166 nM.

For the origin of these results see patent publication US5705509A, “Tricyclic heterocyclic compounds as 5-HT4 receptor antagonists” (SmithKline Beecham plc, priority 1993, dated 1998).
